Read-outs that look alike come from different tables or passages of the source.
Key:
[1] = test system: SW1116 and LS174T cell lines; experiment: Nitroreductase-activation cytotoxicity, SRB assay, 'same cell lines' (value not assigned to one line); type: cell-based, human
Protocol: (§1) Compound 7, synthesized according to example 1, was evaluated in two different cell lines, namely SW1116 and LS174T. Both SW1116 and LS174T are human adenocarcinoma colonic cell lines, which were grown at Charing Cross hospital. The cells, at a concentration of 2500 cells/ml, were plated in 96-well microtitre plates, and were incubated at 37° C. for 1 hour with different concentrations of the prodrug, in the presence or absence of E. coli nitroreductase-monoclonal antibody conjugate in phosphate buffer saline (available from Sigma), and NADH (the co-factor necessary for enzyme function) in DMSO. The cells were then washed and incubated for a further 3 days at 37° C. At the end of this period, the cells were fixed (TCA) and stained. The concentration of the remaining viable cells adhering to the plates was quantified by a sulforhodamine B (SRB) dye. The control sets of cells treated with the prodrug alone were used in order to evaluate the cytotoxicity of the compound prior to enzymatic activation.

[2] = test system: K562 cells; experiment: MTT growth inhibition of K562 cells by irradiated aliquots; type: cell-based, human
Protocol: An MTT assay was used to evaluate the ability of aliquots of the activated analogues, which were removed at time intervals, to inhibit the growth of chronic human histiocytic leukaemia K562 cells in culture. Following treatment of cells with a range of drug doses, cells were transferred to 96-well microtitre plates, 10^4 cells per well, 8 wells per sample. Plates were incubated at 37° C. in a humidified atmosphere containing 5% CO2. The assay is based on the ability of viable cells to reduce a yellow soluble tetrazolium salt 3-(4,5-dimethylthiazolyl)-2,5-diphenyltetrazolium bromide (MTT), to an insoluble purple formazan precipitate. Following incubation of the plates for 4 days (to allow control cells to increase 10-fold in number), 20 μL of a 5 mg/mL solution of MTT in phosphate-buffered saline was added to each well and the plates were incubated for a further 5 hours. The plates were then centrifuged for 5 minutes at 300 g and the bulk of the medium was removed from the cell pellet. DMSO (200 μL) was added to each well, and the samples agitated to ensure complete mixing. The optical density was then measured at a wavelength of 550 nm on a Titertek Multiscan ELISA plate reader and expressed as a percentage of the control optical density. For each curve, an IC50 value was read as the dose required to reduce the final optical density to 50% of the control value.

[3] = test system: SW1116 cells; experiment: Nitroreductase-activation cytotoxicity, SRB assay, SW1116 cells; type: cell-based, human
Protocol: as §1

[4] = test system: LS174T cells; experiment: Nitroreductase-activation cytotoxicity, SRB assay, LS174T cells; type: cell-based, human
Protocol: as §1

[5] = test system: A2780cisR; experiment: Ovarian cell line cytotoxicity, SRB, 96 hours; type: cell-based
Protocol: (§2) Compounds 52 (UP 2073) and the comparative compound 55b (UP2090) were evaluated for their cytotoxic activity in ovarian cell lines by Dr Lloyd R. Kelland's group at The Institute of Cancer Research, Sutton, UK. The five cell lines investigated were SKOV-3, A2780/A2780cisR and CH1/CH1cisR (cisR denotes that the cell line is resistant to cisplatin).
(§3) Single viable cells were seeded in growth medium (160 μL) in 96-well microtitre plates and allowed to attach overnight. The test compounds were then dissolved in DMSO (to give 20 mM drug concentrations) immediately prior to adding the cells in quadruplicate wells. The final drug concentrations in the wells ranged from 100 μM to 2.5 nM as follows:100, 25, 10, 2.5, 1 μM, 250, 100, 25, 10, 2.5 nM (drugs were diluted in growth medium and then 40 μL added to the existing well volume of 160 μL to give final concentrations as above). After 96 hours, the medium was removed and the remaining cells fixed by exposure to 10% trichloroacetic acid on ice for 30 minutes. The wells were then washed 3-4 times with tap water, air dried overnight and treated with 100 μL of sulphorhodamine B (0.4%) dissolved in 1% acetic acid. Staining was allowed to continue for 10-15 minutes, then the wells were washed 3-4 times with 1% acetic acid, air dried and then added to Tris base (100 μL of 10 mM). Plates were then shaken and absorbance readings at […] were determined using a plate reader. The IC50 values were calculated from plots of concentration versus percentage absorbance (compared with 8 untreated wells).

[6] = test system: A2780; experiment: Ovarian cell line cytotoxicity, SRB, 96 hours; type: cell-based; conditions: Homo sapiens; A2780, 96 hours
Protocol: as §2, §3

[7] = test system: CH1cisR; experiment: Ovarian cell line cytotoxicity, SRB, 96 hours; type: cell-based
Protocol: as §2, §3

[8] = test system: CH1; experiment: Ovarian cell line cytotoxicity, SRB, 96 hours; type: cell-based; conditions: Homo sapiens; CH1, 96 hours
Protocol: as §2, §3

[9] = test system: SKOV3; experiment: Ovarian cell line cytotoxicity, SRB, 96 hours; type: cell-based; conditions: Homo sapiens, SK-OV-3; SKOV3, 96 hours
Protocol: as §2, §3

[10] = UVA (365 nm) cleavage of photolabile NVOC group monitored by HPLC; type: physicochemical
Protocol: This experiment involved the irradiation of compound 11, see example 3, in DMF at a concentration of 1 mM using a Stratagene UVA Crosslinker(365 nm). Small aliquots (100 μL) were removed at 30 minutes, 1 hour, 2 hours and 3 hours and the cleavageof the photolabile NVOC group was monitored by HPLC, using a Waters C4, 300 angstrom reversed phase column and a mobile phase of 50% methanol/50% water. Compound 11 has a retention time of 11.25 minutes and upon radiation produced a new peak with a retention time of 8.58 minutes. Authentic benzyl DC-81 has an identical retention time of 8.58 minutes. Complete conversion is achieved by 2 hours of irradiation at 365 nm under the conditions employed.

[11] = irradiation time 0 hours, DMF at 1 mM initial drug concentration
[12] = irradiation time 0 hours, DMF at 10 mM initial drug concentration
[13] = LS174T, E. coli nitroreductase-antibody conjugate + NADH, read-out: IC50 in the presence of the enzyme and co-factor

COc1cc2c(cc1OCc1ccccc1)N=C[C@@H]1CCCN1C2=O [benzyl DC-81, reference compound]
IC50 ([1]; same cell lines, same conditions, read-out: IC50 of the parent drug): 0.008 µM
IC50 [2, 11]: 500 nM
IC50 [2, 12]: 500 nM
IC50 ([2]; irradiation time 0 hours, FIG. 8: DMF at 1 mM, text says methanol): 500 nM

CC=C1C[C@H]2C(O)N(C(=O)OCc3ccc([N+](=O)[O-])cc3)c3cc(OCc4ccccc4)c(OC)cc3C(=O)N2C1 (stereo partly drawn) [Compound 24, (11aS)-8-benzyloxy-7-methoxy-1,3,10,11,11a-tetrahydro-2-ethylidene-11-hydroxy-10-(p-nitrobenzyloxy)carboxy-5H-pyrrolo[2,1-c][1,4]-benzodiazepine-5-one]
IC50 ([1]; Homo sapiens, after addition of enzyme conjugate and NADH, cell line not specified, read-out: IC50 of the nitroreductase-activated prodrug): 6.4 µM
IC50 ([1]; Homo sapiens, no enzyme, average of two experiments, cell line not specified, read-out: IC50 of prodrug alone): 86.2 µM
activation factor ([1]; IC50 without / with enzyme conjugate and NADH): approximately 13.5

COc1cc2c(cc1OCc1ccccc1)N(C(=O)OCc1ccc([N+](=O)[O-])cc1)C(O)[C@@H]1CCCN1C2=O (stereo partly drawn) [Compound 7, (11aS)-8-benzyloxy-7-methoxy-1,2,3,10,11,11a-hexahydro-11-hydroxy-10-(p-nitrobenzyloxy)carboxy-5H-pyrrolo[2,1-c][1,4]-benzodiazepine-5-one]
IC50 ([3]; SW1116, E. coli nitroreductase-antibody conjugate + NADH, read-out: IC50 in the presence of the enzyme and co-factor): 1000 to 5000 nM
toxicity of the prodrug alone ([3]; SW1116 cells, no enzyme, concentrations of up to 500 μM): essentially non-toxic
toxicity of the prodrug alone ([4]; LS174T cells, no enzyme, concentrations higher than 100 μM): slight toxicity
IC50 [4, 13]: 1 to 5 µM
IC50 ([1]; after addition of enzyme conjugate and NADH, cell line not specified, read-out: IC50 of the nitroreductase-activated prodrug): 1 to 5 µM
difference between IC50 of parent drug and nitroreductase-activated prodrug ([1]; parent benzyl DC-81 vs activated prodrug): 20-100 fold

COc1cc2c(cc1OC)C(=O)N1CCC[C@H]1C=N2 [UP2025]
RF (resistance factor) ([5]; A2780cisR divided by A2780): 2.4
IC50 ([5]; Homo sapiens, A2780cisR (cisplatin resistant), 96 hours): 155 nM
IC50 [6]: 64 nM
RF (resistance factor) ([7]; CH1cisR divided by CH1): 1.3
IC50 ([7]; Homo sapiens, CH1cisR (cisplatin resistant), 96 hours): 110 nM
IC50 [8]: 82 nM
IC50 [9]: 1700 nM

COc1cc(COC(=O)N2c3cc(OCc4ccccc4)c(OC)cc3C(=O)N3CCC[C@H]3C2O)c([N+](=O)[O-])cc1OC (stereo partly drawn) [Compound 11, (11aS)-8-benzyloxy-7-methoxy-1,2,3,10,11,11a-hexahydro-11-hydroxy-10-(21-nitro-4′,5′-dimethoxybenzyloxy)carboxy-5H-pyrrolo[2,1-c][1,4]-benzodiazepine-5-one]
irradiation time to complete conversion ([10]; DMF, 1 mM, 365 nm, HPLC): ≤ 2 h
IC50 [2, 11]: 47500 nM
IC50 [2, 12]: 48500 nM
IC50 ([2]; irradiation time 0.5 hours, DMF at 1 mM initial drug concentration): 980 nM
IC50 ([2]; irradiation time 0.5 hours, DMF at 10 mM initial drug concentration): 4330 nM
IC50 ([2]; irradiation time 0.5 hours, FIG. 8: DMF at 1 mM, text says methanol): 4500 nM
IC50 ([2]; irradiation time 1.0 hours, DMF at 1 mM initial drug concentration): 600 nM
IC50 ([2]; irradiation time 1.0 hours, DMF at 10 mM initial drug concentration): 2170 nM
IC50 ([2]; irradiation time 1.0 hours, FIG. 8: DMF at 1 mM, text says methanol): 4000 nM
IC50 ([2]; irradiation time 2.0 hours, DMF at 1 mM initial drug concentration): 600 nM
IC50 ([2]; irradiation time 2.0 hours, DMF at 10 mM initial drug concentration): 1750 nM
IC50 ([2]; irradiation time 2.0 hours, FIG. 8: DMF at 1 mM, text says methanol): 3200 nM

1,1′-[[(Propane-1,3-diyl)dioxy]bis[[2-(2,3-dimethoxy-5-nitrobenzyloxycarboxamido)]bis[(11aS)-7-methoxy-1,2,3,11a-tetrahydro-11-hydroxy-5H-pyrrolo[1,2-c][1,4]benzodiazepine-5-one [Compound 32]
irradiation time to almost complete conversion ([10]; HPLC data (not shown)): ≤ 2 h
irradiation time to complete conversion ([10]; HPLC data (not shown), dimer prodrug experiments): ≤ 5 h
IC50 ([2]; dimer series (FIG. 9), irradiation time 0 hours, footnote DMF at 1 mM, FIG. 9 legend methanol): 4500 nM
IC50 ([2]; dimer series (FIG. 9), irradiation time 0.5 hours, footnote DMF at 1 mM, FIG. 9 legend methanol): 1900 nM
IC50 ([2]; dimer series (FIG. 9), irradiation time 1.0 hours, footnote DMF at 1 mM, FIG. 9 legend methanol): 1750 nM
IC50 ([2]; dimer series (FIG. 9), irradiation time 2.0 hours, footnote DMF at 1 mM, FIG. 9 legend methanol): 1250 nM
IC50 ([2]; dimer series (FIG. 9), irradiation time 5.0 hours, footnote DMF at 1 mM, FIG. 9 legend methanol): 850 nM

COc1cc2c(cc1OCCCOc1cc3c(cc1OC)C(=O)N1CCC[C@H]1C(O)N3C(=O)OCc1ccc([N+](=O)[O-])cc1)N(C(=O)OCc1ccc([N+](=O)[O-])cc1)C(O)[C@@H]1CCCN1C2=O (some centres unmarked) [Compound 30]
IC50 ([4]; LS174T, no enzyme, average of two measurements, read-out: IC50 of prodrug alone): 215 µM
IC50 [4, 13]: 13.7 µM
activation factor ([4]; LS174T, IC50 without / with enzyme and co-factor): 15-16 fold

COc1cc2c(cc1OCCCOc1cc3c(cc1OC)C(=O)N1CCC[C@H]1C=N3)N=C[C@@H]1CCCN1C2=O [DSB-120, reference compound]
IC50 ([4]; Homo sapiens, LS174T, read-out: cytotoxicity (IC50) of the parent agent): 0.0005 µM
IC50 ([2]; Homo sapiens, K562, light or radiation study, dimer series (FIG. 9), irradiation time 0 hours, footnote DMF at 1 mM, FIG. 9 legend methanol): 550 nM

— patent US6562806B1, “Pyrrolobenzodiazepines” (Spirogen Limited, priority 1998, dated 2003)
